Measured values published in patent US11897865B2, “ABHD12 inhibitors and methods of making and using same” (THE SCRIPPS RESEARCH INSTITUTE, priority 2018, dated 2024).

Columns and labels:
ABHD12 [1] = target: T1, ABHD12 (Mus musculus, UniProt Q99LR1); assay: Gel-based competitive ABPP, JJH350 probe vs brain membrane proteome; type: biochemical; conditions: for inhibition at 10 µM: 10 μM compound, read-out: % Inhibition @ 10 μM (ABPP gel_JJH350 probe vs brain mem); for IC50: read-out: IC50 (ABPP gel_JJH350 probe vs brain mem)
T1 construct: from tissue; host or cells: brain membrane proteome
T1 sequence (Q99LR1 1-398): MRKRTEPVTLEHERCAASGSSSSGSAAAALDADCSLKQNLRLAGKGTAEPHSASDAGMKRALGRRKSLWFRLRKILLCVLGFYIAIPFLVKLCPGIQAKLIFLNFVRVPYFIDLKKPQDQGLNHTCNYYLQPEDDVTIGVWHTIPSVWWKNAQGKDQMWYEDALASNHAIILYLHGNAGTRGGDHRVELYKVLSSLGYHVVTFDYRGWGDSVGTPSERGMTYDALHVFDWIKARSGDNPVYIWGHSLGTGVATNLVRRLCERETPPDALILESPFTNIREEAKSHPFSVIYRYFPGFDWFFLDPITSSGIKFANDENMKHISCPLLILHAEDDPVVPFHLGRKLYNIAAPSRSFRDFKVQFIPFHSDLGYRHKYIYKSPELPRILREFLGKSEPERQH
Protocol: Gel-Based Competitive ABPP for In Vitro Inhibitor Treatment of Proteomes:
Gel-based ABPP assays were performed as previously reported (Bachovchin, D. A. et al. Superfamily-wide portrait of serine hydrolase inhibition achieved by library-versus-library screening. Proc. Natl. Acad. Sci. U. S. A. 2010, 107, 20941-20946). Cell or tissue proteomes (50 μL, 1 mg/mL) were treated with either FP-Rh (1 μM final concentration) or JJH350 (2 μM final concentration) for 45 min at 37° C. For FP-Rh labeled samples, the reactions were quenched by adding 20 μL of 4× SDS-PAGE loading buffer. The 30 μL of the quenched samples were loaded on gel for analysis. For (S)-1,3-dioxo-7-(4-phenoxybenzoyl)hexahydroimidazo[1,5-a]pyrazin-2(3H)-yl 4-(4-(prop-2-yn-1-yloxy)phenyl)piperazine-1-carboxylate (JJH350)-labeled samples, copper-catalyzed azide-alkyne cycloaddition (CuAAC) was used for visualizing the labeled proteins following the reported protocol. Briefly, rhodamine-PEG3-N3 (1 μL/reaction, 1.25 mM in DMSO), CuSO4 (1 μL/reaction, 50 mM in H2O), TBTA (3 μL/reaction, 1.7 mM in DMSO/t-BuOH [1:4, v/v]) and tris(2-carboxyethyi)phosphine (TCEP) (1 μL/reaction, 50 mM in H2O, freshly prepared) were premixed. 6 μL of this click reagent mixture was immediately added to each JJH350-labeled samples (50 μL, 1 mg/mL) and incubated for 1 h at room temperature. The reactions were quenched by adding 20 μL of 4× SDS-PAGE loading buffer. The 40 μL of the quenched samples were loaded on a gel for analysis.
After separation by SDS-PAGE (10% acrylamide), samples were visualized by in-gel fluorescence scanning using the ChemiDoc MP system (Bio-Rad). Band intensities were quantified using the Image Lab (5.2.1) software (Bio-Rad).

ABHD12 [2] = target: T2, ABHD12 (Homo sapiens, UniProt Q8N2K0); assay: Lyso-PS hydrolysis assay (substrate-based), ABHD12-overexpressing HEK293T membrane lysate; type: biochemical; conditions: 17:1 lyso-PS substrate; ABHD12-overexpressed HEK lysate; read-out: IC50 (Substrate-based assay_ABHD12-overexpressed HEK lysate)
T2 construct: expressed in transfected cells; host or cells: HEK293T
T2 sequence (Q8N2K0 1-398): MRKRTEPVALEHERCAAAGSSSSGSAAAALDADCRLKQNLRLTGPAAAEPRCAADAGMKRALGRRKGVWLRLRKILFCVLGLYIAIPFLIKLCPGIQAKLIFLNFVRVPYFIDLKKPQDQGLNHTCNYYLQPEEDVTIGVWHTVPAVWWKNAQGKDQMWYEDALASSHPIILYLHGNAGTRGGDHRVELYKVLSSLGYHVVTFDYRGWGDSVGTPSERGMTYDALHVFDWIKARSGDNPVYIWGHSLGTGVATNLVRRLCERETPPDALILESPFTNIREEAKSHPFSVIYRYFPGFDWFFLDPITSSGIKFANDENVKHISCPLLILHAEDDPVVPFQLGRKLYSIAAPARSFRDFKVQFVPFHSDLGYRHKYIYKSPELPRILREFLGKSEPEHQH
Protocol: Lyso-PS Hydrolysis Assay:
The lyso-PS lipase activity of ABHD12 was determined as previously described (Blankman, J. L., Long, J. Z., Trauger, S. A., Siuzdak, G. & Cravatt, B. F. ABHD12 controls brain lysophosphatidylserine pathways that are deregulated in a murine model of the neurodegenerative disease PHARC. Proc. Natl. Acad. Sci. U. S. A. 110, 1500-1505, doi:10.1073/pnas.1217121110 (2013)) with some minor modifications. The proteome concentrations were adjusted to 0.25 mg/mL (ABHD12-overexpressing HEK293T membrane) or 0.5 mg/mL (mouse brain membrane) in Dulbecco's phosphate-buffered saline (DPBS) (80 μL/reaction). 20 μL of 500 μM 17:1 lyso-PS in DPBS was added to each reaction (100 μM final concentration) and incubated at 37° C. After 30 min, the reaction was quenched with 400 μL of 2:1 CHCl3/MeOH (v/v) with 1 nmol 15:0 FFA as an internal standard. The mixture was vortexed and centrifuged at 1,400× g to separate the aqueous and organic phase. The organic phase was analyzed by LC-MS (1200 LC/MSD, Agilent Technologies). The separation of the analyte was achieved using a 50 mm×4.6 mm 5 μm Gemini C18 column (Phenomenex) coupled to a guard column (Gemini: C18: 4×3 mm). The LC solvents were as follows: buffer A, […] (95:5, v/v) with 0.1% NH4OH (v/v); and buffer B, iPrOH:MeOH:H2O (60:3 5:5, v/v/v) with 0.1% NH4OH (v/v). The LC method consisted of 0.1 mL/min 20% buffer B for 1.0 min, 0.4 ml/min isocratic mode of 100% buffer B over 7 min and equilibration with 0.5 mL/min 100% buffer A for 3 min. The MS analyses were performed using an electrospray ionization source (ESI) in negative ion mode to measure product formation. MS data were acquired in selected ion monitoring mode at m/z 267.20 for 17:1 FFA and m/z 241.20 for 15:0 FFA.

| SMILES | inhibition at 10 µM (ABHD12 [1]) | IC50 (ABHD12 [1]) | IC50 (ABHD12 [2]) |
| --- | --- | --- | --- |
| FC(F)(F)c1ccc(N2CCC(NC(=S)Nc3cccnc3)CC2)nc1 [Example 14, 1-(Pyridin-3-yl)-3-(1-(5-(trifluoromethyl)pyridin-2-yl)piperidin-4-yl)thiourea] | ≥ 75% | 1000 to 25000 nM | 1000 to 25000 nM |
| FC(F)(F)c1ccnc(N2CCC(NC(=S)Nc3cccnc3)CC2)c1 [Example 15, 1-(Pyridin-3-yl)-3-(1-(4-(trifluoromethyl)pyridin-2-yl)piperidin-4-yl)thiourea] | ≥ 75% | 100 to 1000 nM | 1000 to 25000 nM |
| FC(F)(F)c1cccnc1N1CCC(NC(=S)Nc2cccnc2)CC1 [Example 16, 1-(Pyridin-3-yl)-3-(1-(3-(trifluoromethyl)pyridin-2-yl)piperidin-4-yl)thiourea] | 25 to 50% | 1000 to 25000 nM | 1000 to 25000 nM |
| FC(F)(F)c1cc(N2CCC(NC(=S)Nc3cccnc3)CC2)ncc1Cl [Example 25, 1-(1-(5-Chloro-4-(trifluoromethyl)pyridin-2-yl)piperidin-4-yl)-3-(pyridin-3-yl)thiourea] | ≥ 75% | 1000 to 25000 nM | 1000 to 25000 nM |
| S=C(Nc1cccnc1)NC1CCN(c2cc(Cl)ccn2)CC1 [Example 28, 1-(1-(4-Chloropyridin-2-yl)piperidin-4-yl)-3-(pyridin-3-yl)thiourea] | ≥ 75% | 1000 to 25000 nM | 1000 to 25000 nM |
| S=C(Nc1cccnc1)NC1CCN(c2cc(Oc3ccccc3)ccn2)CC1 [Example 40, 1-(1-(4-Phenoxypyridin-2-yl)piperidin-4-yl)-3-(pyridin-3-yl)thiourea] | ≥ 75% | 1000 to 25000 nM | 1000 to 25000 nM |
| Fc1ccc(Oc2ccnc(N3CCC(NC(=S)Nc4cccnc4)CC3)c2)cc1 [Example 41, 1-(1-(4-(4-Fluorophenoxy)pyridin-2-yl)piperidin-4-yl)-3-(pyridin-3-yl)thiourea] | ≥ 75% | 1000 to 25000 nM | 1000 to 25000 nM |
| FC(F)(F)Oc1ccc(Oc2ccnc(N3CCC(NC(=S)Nc4cccnc4)CC3)c2C(F)(F)F)cc1 [Example 59, 1-(Pyridin-3-yl)-3-(1-(4-(4-(trifluoromethoxy)phenoxy)-3-(trifluoromethyl)pyridin-2-yl)piperidin-4-yl)thiourea] | ≥ 75% | 1000 to 25000 nM | 1000 to 25000 nM |

More lines, now with the values ahead:

| inhibition at 10 µM (ABHD12 [1]) | IC50 (ABHD12 [1]) | IC50 (ABHD12 [2]) | SMILES |
| --- | --- | --- | --- |
| ≥ 75% | 1000 to 25000 nM | 1000 to 25000 nM | FC(F)(F)c1cnc(N2CCC(NC(=S)Nc3cccnc3)CC2)c(Cl)c1 [Example 1, 1-(1-(3-Chloro-5-(trifluoromethyl)pyridin-2-yl)piperidin-4-yl)-3-(pyridin-3-yl)thiourea] |
| ≥ 75% | 100 to 1000 nM | 100 to 1000 nM | FC(F)(F)Oc1ccc(Oc2ccnc(N3CCC(NC(=S)Nc4cccnc4)CC3)c2)cc1 [Example 2, 1-(Pyridin-3-yl)-3-(1-(4-(4-(trifluoromethoxy)phenoxy)pyridin-2-yl)piperidin-4-yl)thiourea] |
| ≥ 75% | ≤ 100 nM | ≤ 100 nM | FC(F)(F)Oc1ccc(Oc2ccnc(N3CCC(NC(=S)Nc4cccnc4)CC3)c2Cl)cc1 [Example 3, 1-(1-(3-chloro-4-(4-(trifluoromethoxy)phenoxy)pyridin-2-yl)piperidin-4-yl)-3-(pyridin-3-yl)thiourea] |
| – | ≤ 100 nM | ≤ 100 nM | FC(F)(F)Oc1ccc(Oc2ccnc(N3CCC(NC(=S)Nc4cccnc4)CC3)c2Cl)c(Cl)c1 [Example 4, 1-(1-(3-Chloro-4-(2-chloro-4-(trifluoromethoxy)phenoxy)pyridin-2-yl)piperidin-4-yl)-3-(pyridin-3-yl)thiourea] |
| – | – | ≤ 100 nM | C#Cc1ccc(Oc2ccnc(N3CCC(NC(=S)Nc4cccnc4)CC3)c2Cl)c(Cl)c1 [Example 5, 1-(1-(3-Chloro-4-(2-chloro-4-ethynylphenoxy)pyridin-2-yl)piperidin-4-yl)-3-(pyridin-3-yl)thiourea] |
| ≥ 75% | 100 to 1000 nM | 100 to 1000 nM | FC(F)(F)c1ccnc(N2CCC(NC(=S)Nc3cccnc3)CC2)c1Cl [Example 26, 1-(1-(3-Chloro-4-(trifluoromethyl)pyridin-2-yl)piperidin-4-yl)-3-(pyridin-3-yl)thiourea] |
| ≥ 75% | 100 to 1000 nM | 100 to 1000 nM | FC(F)(F)c1cc(Cl)nc(N2CCC(NC(=S)Nc3cccnc3)CC2)c1 [Example 27, 1-(1-(6-Chloro-4-(trifluoromethyl)pyridin-2-yl)piperidin-4-yl)-3-(pyridin-3-yl)thiourea] |
| ≥ 75% | 100 to 1000 nM | 100 to 1000 nM | FC(F)(F)c1cccc(N2CCC(NC(=S)Nc3cccnc3)CC2)n1 [Example 29, 1-(Pyridin-3-yl)-3-(1-(6-(trifluoromethyl)pyridin-2-yl)piperidin-4-yl)thiourea] |
| ≥ 75% | 100 to 1000 nM | 100 to 1000 nM | FC(F)(F)c1ccc(Oc2ccnc(N3CCC(NC(=S)Nc4cccnc4)CC3)c2)cc1 [Example 51, 1-(Pyridin-3-yl)-3-(1-(4-(4-(trifluoromethyl)phenoxy)pyridin-2-yl)piperidin-4-yl)thiourea] |
| ≥ 75% | – | 100 to 1000 nM | FC(F)(F)Oc1ccc(Oc2ccnc(N3CCC(NC(=S)Nc4cccnc4)CC3)c2)cc1Cl [Example 54, 1-(1-(4-(3-Chloro-4-(trifluoromethoxy)phenoxy)pyridin-2-yl)piperidin-4-yl)-3-(pyridin-3-yl)thiourea] |
| ≥ 75% | 100 to 1000 nM | 100 to 1000 nM | FC(F)(F)Oc1cc(Oc2ccnc(N3CCC(NC(=S)Nc4cccnc4)CC3)c2)ccc1Cl [Example 57, 1-(1-(4-(4-Chloro-3-(trifluoromethoxy)phenoxy)pyridin-2-yl)piperidin-4-yl)-3-(pyridin-3-yl)thiourea] |
